Here are results for one compound from patent publication EP4285905A1, “CABERGOLINE OR A PHARMACEUTICALLY ACCEPTABLE SALT OR SOLVATE THEREOF, FOR USE IN PREVENTION OR DELAY OF POST-PREGNANCY BREAST CANCER IN A FEMALE MAMMAL” (Consejo Superior de Investigaciones Cientificas, priority 2022, dated 2023).

Assay [1] has as its system K14Cre; Brca1^F/F; P53^F/F. In words: Tumour latency and tumour incidence in the Brca1/P53 deficient mouse model. It is filed as in vivo, mice. The text has this: The study model used was a genetically modified mouse, generated by the group led by Jos Jinkers from the Netherland Cancer Institute and generously donated to our group. It is a conditional double knock-out (KO) for Brca1 and P53 that expresses Cre-recombinase under the promoter of the cytokeratin-14 gene (K14) as a model named: K14Cre; Brca1^F/F; P53^F/F (hereinafter Brca1 or KO). These mice develop mammary tumours (cancers) with a penetrance of 100% (although it depends on whether they develop skin cancer first and must be sacrificed) and a median age of 7 months. They mimic human tumours with BRCA1 mutations, since they are basal-type and lose P53. Since Cre-recombinase under the promoter of the K14 gene is not only expressed in mammary cells, but also in other epithelial cells, these mice develop squamous cell carcinoma-like skin tumors. The cohort of mice used in this study has an FVB/N genetic background. […]

In assay [2] the test system is Brca1/P53-deficient mice. In words: Ki-67 immunohistochemistry as a proliferation marker in the mammary epithelium. It is filed as in vivo. Here is the method:
Subsequently, the same groups of animals indicated were generated and samples were collected from the mammary glands at 1, 3, 7, 30 and 60 days post-gestation (in non-lactating multiparous) or post-weaning (in lactating multiparous, with and without treatment with cabergoline) (N = 5 mice per group at each time studied).
Ki67 staining was performed at the Comparative Molecular Pathology Service of the Cancer Molecular and Cellular Biology Institute in Salamanca. Sections of the sample were made at 3 µm thickness. Sections were fished onto slides specially treated for this technique (Leica BOND Plus Slides, #S21.2113.A, Leica). The staining process was carried out using the Roche Discovery ULTRA research instrument. The protocol performed by the apparatus is as follows: deparaffinization of the sample, heating the slide to 69 °C; cell conditioning that consisted in the unmasking of the epitope by incubating the sample in a buffer formed by TRIS EDTA pH8 at a temperature of 100 °C for 32 minutes. Next, the primary antibody (Rabbit Anti-Human Ki-67 Monoclonal Antibody (Clone SP6), #MAD-020310Q, Master Diagnostica) was applied manually at a 1:50 dilution and incubated at 37 °C for 60 minutes. After incubation of the primary antibody, two washes with HRP buffer were performed. […]
To quantify cells positive for Ki-67 or caspase 3, the Leica Application Suite (LAS) V3.7 program was used. […]

With `C=CCN1C[C@H](C(=O)N(CCCN(C)C)C(=O)NCC)C[C@@H]2c3cccc4[nH]cc(c34)C[C@H]21` [cabergoline, 1-[(6-allylergolin-8ß-yl)-carbonyl]-1-[3-(dimethylamino)propyl]-3-ethylurea], the tumour latency entry in assay [1] (single intraperitoneal dose 0.25 mg/Kg at weaning after second lactation, vs pregnancy and lactation group P = 0.019, non-lactation pregnancy group P < 0.0001, nulliparous P < 0.0001) is “greater latency”. In assay [1] (single intraperitoneal dose 0.25 mg/Kg at weaning, 10 mice out of 37 developed tumour, vs lactating multiparous mice P = 0.0062), this compound returned a tumour incidence of 27.78%. Moreover, the “epithelial proliferation (% of Ki67+ cells)” value in assay [2] (30 days post-weaning) is “profound hypoproliferative state”; in assay [2] (60 days of post-lactational involution), “hypoproliferative state”.
